Tests used:
Type in all cases: in vivo
[1] = system: Corn Earworm (Helicoverpa zea); experiment: Bioassays on CEW, 128-well diet tray assay; details: percent mortality, second instar larvae, 50 μg/cm^2 on artificial diet, five to seven days, 25° C.; Table 3
Procedure: (§1) Certain molecules disclosed in this document were tested against BAW and CEW and CL using procedures described in the following examples. In the reporting of the results, the “BAW & CEW & CL Rating Table” was used (See Table Section).
Bioassays on CEW (Helicoverpa zea)
Bioassays on CEW were conducted using a 128-well diet tray assay. one to five second instar CEW larvae were placed in each well (3 mL) of the diet tray that had been previously filled with 1 mL of artificial diet to which 50 μg/cm^2 of the test compound (dissolved in 50 μL of 90:10 acetone-water mixture) had been applied (to each of eight wells) and then allowed to dry. Trays were covered with a clear self-adhesive cover, and held at 25° C., 14:10 light-dark for five to seven days. Percent mortality was recorded for the larvae in each well; activity in the eight wells was then averaged. The results are indicated in the table entitled “Table 3: Assay Results” (See Table Section).

[2] = system: Cabbage Looper (Trichoplusia ni); experiment: Bioassays on CL, 128-well diet tray assay; details: percent mortality, second instar larvae, 50 μg/cm^2 on artificial diet, five to seven days, 25° C.; Table 3A
Procedure: as §1
Bioassays on CL (Trichoplusia ni)
Bioassays on CL were conducted using a 128-well diet tray assay. One to five second instar CL larvae were placed in each well (3 mL) of the diet tray that had been previously filled with 1 mL of artificial diet to which 50 μg/cm^2 of the test compound (dissolved in 50 μL of 90:10 acetone-water mixture) had been applied (to each of eight wells) and then allowed to dry. Trays were covered with a clear self-adhesive cover, and held at 25° C., 14:10 light-dark for five to seven days. Percent mortality was recorded for the larvae in each well; activity in the eight wells was then averaged. The results are indicated in the table entitled “Table 3A: Assay Results” (See Table Section).

[3] = system: Beet Armyworm (Spodoptera exigua); experiment: Bioassays on BAW, 128-well diet tray assay; details: percent mortality, second instar larvae, 50 μg/cm^2 on artificial diet, five to seven days, 25° C.; Table 3
How it was run: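 Second-instar larvae (one to five per well) were placed on artificial diet surface-treated with 50 μg/cm^2 compound in acetone-water and held at 25 °C, 14:10 light-dark, for five to seven days. Percent mortality was averaged over eight wells.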

Structure (SMILES) | BAW Rating [3] | also measured
O=C(NCc1ccc(/C=C/C(c2cc(Cl)c(Cl)c(Cl)c2)C(F)(F)F)cc1Cl)Oc1ccccc1Cl (stereo not drawn) [CC40] |  | CEW Rating [1]: A (50-100)
O=C(NCC(F)(F)F)NNC(=O)c1ccc(/C=C/C(c2cc(Cl)c(Cl)c(Cl)c2)C(F)(F)F)cc1Br (stereo not drawn) [Compound F7, (E)-2-(2-Bromo-4-(4,4,4-trifluoro-3-(3,4,5-trichlorophenyl)but-1-en-1-yl)benzoyl)-N-(2,2,2-trifluoroethyl)hydrazinecarboxamide] |  | CL Rating [2]: A (50-100)
FC(F)(F)C(/C=C/c1ccc(-n2cncn2)cc1)c1ccccc1 (stereo not drawn) [DC3] | B (More than 0-Less than 50) | 
N#Cc1cc(/C=C/C(c2cc(Cl)c(F)c(Cl)c2)C(F)(F)F)ccc1-n1cncn1 (stereo not drawn) [DC35] | A (50-100) | 
O=C(NCc1ccc(C(F)(F)F)nc1)c1ccc(/C=C/C(c2cc(Cl)c(Cl)c(Cl)c2)C(F)(F)F)cc1Br (stereo not drawn) [AC75] | A (50-100) | 
O=C(NC1CSC1)c1ccc(/C=C/C(c2cc(Cl)c(Cl)c(Cl)c2)C(F)(F)F)cc1C(F)(F)F (stereo not drawn) [AC34] | A (50-100) | 
CSCCC(=O)NCc1ccc(/C=C/C(c2cc(Cl)c(Cl)c(Cl)c2)C(F)(F)F)cc1Cl (stereo not drawn) [CC19] | A (50-100) | 
N#Cc1cc(/C=C/C(c2cc(Cl)cc(C(F)(F)F)c2)C(F)(F)F)ccc1-n1cncn1 (stereo not drawn) [DC33] | A (50-100) | 
Fc1cc(F)cc(C(/C=C/c2ccc(-n3cncn3)cc2)C(F)(F)F)c1 (stereo not drawn) [DC8] | A (50-100) | 
O=C(NNc1ccc(/C=C/C(c2cc(Cl)c(Cl)c(Cl)c2)C(F)(F)F)cc1)C1CC1 (stereo not drawn) [CC50, (E)-N′-(4-(4,4,4-Trifluoro-3-(3,4,5-trichlorophenyl)but-1-en-1-yl)phenyl)cyclopropanecarbohydrazide] | A (50-100) | 
O=C(NC1CSC1)c1ccc(/C=C/C(c2cc(Cl)cc(Cl)c2)C(F)(F)F)cc1F (stereo not drawn) [AC61] | A (50-100) | 
O=C(CC(F)(F)F)NCc1ccc(/C=C/C(c2cc(Cl)c(Cl)c(Cl)c2)C(F)(F)F)cc1C(F)(F)F (stereo not drawn) [CC24] | A (50-100) | 
Cc1cc(/C=C/C(c2cc(Cl)cc(Cl)c2)C(F)(F)F)ccc1C(=O)NCc1cncnc1 (stereo not drawn) [AC39, 4-((E)-3-(3,5-Dichlorophenyl)-4,4,4-trifluorobut-1-enyl)-2-methyl-N-((pyrimidin-5-yl)methyl)benzamide] | A (50-100) | 
CS(=O)(=O)CCC(=O)NCc1ccc(/C=C/C(c2cc(Cl)c(Cl)c(Cl)c2)C(F)(F)F)cc1Cl (stereo not drawn) [CC30, (E)-N-(2-Chloro-4-(4,4,4-trifluoro-3-(3,4,5-trichlorophenyl)but-1-en-1-yl)benzyl)-3-(methylsulfonyl)propanamide] | A (50-100) | 
O=C(CC(F)(F)F)NCc1ccc(/C=C/C(c2cc(Cl)cc(Cl)c2)C(F)(F)F)cc1 (stereo not drawn) [CC3] | A (50-100) | 
CCNC(=O)N(C)NC(=O)c1ccc(/C=C/C(c2cc(Cl)c(Cl)c(Cl)c2)C(F)(F)F)cc1Br (stereo not drawn) [Compound F1, (E)-2-(2-Bromo-4-(4,4,4-trifluoro-3-(3,4,5-trichlorophenyl)but-1-en-1-yl)benzoyl)-N-ethyl-1-methylhydrazinecarboxamide] |  | CL Rating [2]: A (50-100)
O=C(NC1CSC1)c1ccc(/C=C/C(c2cc(Cl)c(F)c(Cl)c2)C(F)(F)F)cc1F (stereo not drawn) [AC67] | A (50-100) | 
O=C(NCc1ccc(/C=C/C(c2cc(Cl)cc(Cl)c2)C(F)(F)F)cc1Cl)C1CC1 (stereo not drawn) [CC8] | A (50-100) | 
Fc1cc(/C=C/C(c2cc(Cl)cc(Cl)c2)C(F)(F)F)ccc1-n1cncn1 (stereo not drawn) [DC48] | A (50-100) | 
FC(F)(F)C(/C=C/c1ccc(-n2cncn2)cc1)c1cc(Cl)cc(Cl)c1 (stereo not drawn) [DC1, (E)-1-(4-(3-(3,5-Dichlorophenyl)-4,4,4-trifluorobut-1-en-1-yl)phenyl)-1H-1,2,4-triazole] | A (50-100) | 
Cc1cc(/C=C/C(c2cc(Cl)cc(Cl)c2)C(F)(F)F)ccc1C(=O)NC1CSC1 (stereo not drawn) [AC10] | A (50-100) | 
CC(=O)NCc1ccc(/C=C/C(c2cc(Cl)cc(Cl)c2)C(F)(F)F)cc1Cl (stereo not drawn) [CC7, (E)-N-(2-Chloro-4-(3-(3,5-dichlorophenyl)-4,4,4-trifluorobut-1-en-1-yl)benzyl)acetamide] | A (50-100) | 
C=CCNC(=O)CNC(=O)c1ccc(/C=C/C(c2cc(Cl)c(Cl)c(Cl)c2)C(F)(F)F)cc1Br (stereo not drawn) [AC111] | A (50-100) | 
FC(F)(F)C(/C=C/c1ccc(-n2cncn2)c(Br)c1)c1cc(Cl)cc(Cl)c1 (stereo not drawn) [DC47] | A (50-100) | 
Cc1cc(/C=C/C(c2cc(Cl)c(Cl)c(Cl)c2)C(F)(F)F)ccc1C(=O)NC1CSC1 (stereo not drawn) [AC23] | A (50-100) | 
C/C(=C\C(c1cc(Cl)cc(Cl)c1)C(F)(F)F)c1ccc(-n2cncn2)cc1 (stereo not drawn) [DC68, (E)-1-(4-(4-(3,5-Dichlorophenyl)-5,5,5-trifluoropent-2-en-2-yl)phenyl)-1H-1,2,4-triazole] | A (50-100) | 
CC(=O)Nc1ncn(-c2ccc(/C=C/C(c3cc(Cl)cc(Cl)c3)C(F)(F)F)cc2C#N)n1 (stereo not drawn) [DC39] | A (50-100) | 
FC(F)(F)C(/C=C/c1ccc(-n2cncn2)cc1Cl)c1cc(Cl)c(Cl)c(Cl)c1 (stereo not drawn) [DC66] | A (50-100) | 
CCNC(=S)NCc1ccc(/C=C/C(c2cc(Cl)c(Cl)c(Cl)c2)C(F)(F)F)cc1Cl (stereo not drawn) [CC37, (E)-1-(2-Chloro-4-(4,4,4-trifluoro-3-(3,4,5-trichlorophenyl)but-1-en-1-yl)benzyl)-3-ethylthiourea] | A (50-100) | 
O=C(NC1CCCc2cc(/C=C/C(c3cc(Cl)c(Cl)c(Cl)c3)C(F)(F)F)ccc21)C1CC1 (stereo not drawn) [BC7] | A (50-100) | 

From patent publication US9635859B2, “Pesticidal compositions and processes related thereto” (Dow AgroSciences LLC, priority 2012, dated 2017)
